Reference: ChEMBL document CHEMBL1201862, “PubChem BioAssay data set” (2004)
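1) Cells in 96-well plates. 2) Compound, 48 h, 5 concentrations. 3) Linear interpolation between surrounding doses. 4) Unreached endpoint = highest concentration. GI50 marks 50% less growth.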 Activity calls are given as the source filed them. No stated cut-off is given here; in the data, active = GI50 up to about 1.1 µM and inactive = higher.

Experiments:
Experiment in all cases: NCI tumour cell line growth inhibition, 48 h
[1] = tested on: DLD-1
[2] = tested on: HOP-18
[3] = tested on: M19-MEL
[4] = tested on: LXFL 529
[5] = tested on: DMS-273
[6] = tested on: DMS-114
[7] = tested on: RXF 631
[8] = tested on: KM-20L2
[9] = tested on: SNB-78

With `O=[N+]([O-])c1ccc(/C=N/C23CC4CC(CC(C4)C2)C3)cc1` the GI50 [1] was > 100 µM (inactive), the GI50 [2] was > 100 µM (inactive) and the GI50 [3] was > 100 µM (inactive). The GI50 [4] was > 100 µM (inactive), the GI50 [5] was > 100 µM (inactive) and the GI50 [6] was 91.2 µM (inactive). For the same compound, the GI50 [7] was > 100 µM (inactive), the GI50 [8] was > 100 µM (inactive) and the GI50 [9] was > 100 µM (inactive).
`CN(C)/C=C/C(=O)c1cccc(C(=O)/C=C/N(C)C)n1` was tested, and the GI50 [1] was > 100 µM (inactive), the GI50 [2] was > 100 µM (inactive) and the GI50 [3] was > 100 µM (inactive). For the same compound, the GI50 [4] was > 100 µM (inactive), the GI50 [5] was > 100 µM (inactive) and the GI50 [8] was > 100 µM (inactive). The GI50 [9] was > 100 µM (inactive).
In the case of `O=C1c2c(c3c4ccccc4n(CC4CO4)c3c3[nH]c4ccccc4c23)C(=O)N1Cc1ccccc1` (stereo not given), the GI50 [1] is reported as > 10 µM (inactive), the GI50 [3] is reported as > 100 µM (inactive) and the GI50 [4] is reported as > 100 µM (inactive). For the same compound, the GI50 [5] was > 100 µM (inactive), the GI50 [6] was > 100 µM (inactive) and the GI50 [7] was > 100 µM (inactive). The GI50 [9] was > 100 µM (inactive).
For `CC1=NN(C(=O)Cc2ccccc2)C(=O)/C1=C\c1ccc([N+](=O)[O-])cc1`, the GI50 [1] was > 100 µM (inactive), the GI50 [3] was > 100 µM (inactive) and the GI50 [4] was > 100 µM (inactive). The GI50 [6] was > 100 µM (inactive), the GI50 [8] was > 100 µM (inactive) and the GI50 [9] was > 100 µM (inactive).
For `N#CCN1C(=O)c2cc([N+](=O)[O-])cc3cc([N+](=O)[O-])cc(c23)C1=O`, the GI50 [1] was 7.05 µM (inactive), the GI50 [2] was 64.3 µM (inactive) and the GI50 [3] was 14.3 µM (inactive). For the same compound, the GI50 [4] was 9.23 µM (inactive), the GI50 [5] was 23.9 µM (inactive) and the GI50 [6] was 15.2 µM (inactive). For the same compound, the GI50 [7] was 20 µM (inactive), the GI50 [8] was 12.9 µM (inactive) and the GI50 [9] was 16.7 µM (inactive).
With `O=c1c2ccccc2nc(-c2cccc(Cl)c2)n1NCC1(O)OCC(O)C(O)C1O` (stereo not given) the GI50 [3] was > 100 µM (inactive), the GI50 [4] was 93.1 µM (inactive) and the GI50 [5] was > 100 µM (inactive). The GI50 [6] was > 100 µM (inactive), the GI50 [7] was 66.5 µM (inactive) and the GI50 [8] was > 100 µM (inactive). The GI50 [9] was > 100 µM (inactive).
For `CCOC(=O)CC(C)C1(C(=O)OCC)CCCCC1=O` (stereo not given), the GI50 [1] was 35 µM (inactive), the GI50 [2] was > 100 µM (inactive) and the GI50 [3] was > 100 µM (inactive). For the same compound, the GI50 [4] was > 100 µM (inactive), the GI50 [5] was 15 µM (inactive) and the GI50 [6] was 20.3 µM (inactive). For the same compound, the GI50 [7] was > 100 µM (inactive), the GI50 [8] was 98.9 µM (inactive) and the GI50 [9] was > 100 µM (inactive).
With `CCN(CC)CC(=O)O[C@]1(CC)C(=O)OCc2c1cc1n(c2=O)Cc2cc3ccccc3nc2-1` the GI50 [1] was 0.916 µM (active), the GI50 [2] was 0.0908 µM (active) and the GI50 [3] was 0.0902 µM (active). The GI50 [4] was 0.404 µM (active), the GI50 [5] was < 0.01 µM (active) and the GI50 [6] was 0.0142 µM (active). The GI50 [8] was 0.152 µM (active) and the GI50 [9] was 0.953 µM (active).
In the case of `CN1C(=O)N(c2nc3ccccc3[nH]2)C(C)(C)C1=O`, the GI50 [1] is reported as > 100 µM (inactive), the GI50 [2] is reported as > 100 µM (inactive) and the GI50 [3] is reported as > 100 µM (inactive). For the same compound, the GI50 [4] was > 100 µM (inactive), the GI50 [5] was > 100 µM (inactive) and the GI50 [6] was > 100 µM (inactive). The GI50 [8] was > 100 µM (inactive) and the GI50 [9] was > 100 µM (inactive).
`CCOC(=O)/C(ON)=C(/CC/C(C(=O)OC)=C(\ON)C(=O)OCC)C(=O)OC` was tested, and the GI50 [1] was > 100 µM (inactive), the GI50 [2] was > 100 µM (inactive) and the GI50 [3] was > 100 µM (inactive). For the same compound, the GI50 [4] was > 100 µM (inactive), the GI50 [5] was > 100 µM (inactive) and the GI50 [6] was > 100 µM (inactive). The GI50 [7] was > 100 µM (inactive), the GI50 [8] was > 100 µM (inactive) and the GI50 [9] was > 100 µM (inactive).
`COC(=O)N/N=C(/CCC(=O)Nc1ccc(C)c(C)c1)CC(=O)C(C)(C)C` was tested, and the GI50 [1] was > 100 µM (inactive), the GI50 [2] was > 100 µM (inactive) and the GI50 [3] was > 100 µM (inactive). For the same compound, the GI50 [4] was > 100 µM (inactive), the GI50 [5] was > 100 µM (inactive) and the GI50 [6] was > 100 µM (inactive). The GI50 [8] was > 100 µM (inactive).
With `CCOC(=O)C1=C(C)N(c2ccc(C)cc2)C2=C(C(=O)N(c3ccccc3)C2c2ccccc2)C1c1ccccc1` (stereo not given) the GI50 [1] was 12.3 µM (inactive), the GI50 [3] was > 25 µM (inactive) and the GI50 [4] was 20 µM (inactive). For the same compound, the GI50 [5] was > 25 µM (inactive), the GI50 [6] was 17.9 µM (inactive) and the GI50 [7] was > 25 µM (inactive). For the same compound, the GI50 [8] was > 25 µM (inactive).
For `CCOC(=O)c1[nH]c(COC(C)=O)c(CCCOC(C)=O)c1CCCOC(C)=O`, the GI50 [4] was > 100 µM (inactive), the GI50 [5] was > 100 µM (inactive) and the GI50 [8] was > 100 µM (inactive). The GI50 [9] was > 100 µM (inactive).
With `ClC/C=C/COC1CCCCO1` (stereo not given) the GI50 [1] was > 100 µM (inactive), the GI50 [2] was > 100 µM (inactive) and the GI50 [3] was > 100 µM (inactive). The GI50 [4] was > 100 µM (inactive), the GI50 [5] was 62.2 µM (inactive) and the GI50 [6] was 33.2 µM (inactive). The GI50 [7] was 34.8 µM (inactive), the GI50 [8] was > 100 µM (inactive) and the GI50 [9] was > 100 µM (inactive).
`Cc1cc2c(cc1C)[n+]([O-])c(C(=O)C/C(=N/NC(=S)NN)C(=O)Nc1cccc(C(F)(F)F)c1)c[n+]2[O-]` was tested, and the GI50 [1] was > 100 µM (inactive), the GI50 [2] was > 100 µM (inactive) and the GI50 [3] was > 100 µM (inactive). The GI50 [4] was > 100 µM (inactive), the GI50 [5] was > 100 µM (inactive) and the GI50 [6] was > 100 µM (inactive). The GI50 [7] was > 100 µM (inactive) and the GI50 [9] was > 100 µM (inactive).
`O=C1C2C=CC(n3[nH]c(=O)n(Cc4ccccc4)c3=O)CC2C(=O)N1c1cccc(Cl)c1` (stereo not given) was tested, and the GI50 [1] was > 100 µM (inactive), the GI50 [2] was > 100 µM (inactive) and the GI50 [3] was > 100 µM (inactive). The GI50 [4] was > 100 µM (inactive), the GI50 [5] was > 100 µM (inactive) and the GI50 [6] was > 100 µM (inactive). The GI50 [8] was > 100 µM (inactive) and the GI50 [9] was > 100 µM (inactive).
With `OCc1cc2c(cn1)[nH]c1ccc(NCc3ccccc3)cc12` the GI50 [1] was 34.8 µM (inactive), the GI50 [3] was 22.2 µM (inactive) and the GI50 [4] was 17.9 µM (inactive). The GI50 [5] was 20.7 µM (inactive), the GI50 [6] was 15.6 µM (inactive) and the GI50 [7] was 27.4 µM (inactive). For the same compound, the GI50 [8] was 14.4 µM (inactive).
In the case of `COc1ccc(Cc2c3cc(O)c([O-])cc3cc[n+]2C)cc1`, the GI50 [1] is reported as 10.6 µM (inactive), the GI50 [2] is reported as 36.1 µM (inactive) and the GI50 [3] is reported as 20.7 µM (inactive). The GI50 [5] was 16.5 µM (inactive), the GI50 [6] was 12.8 µM (inactive) and the GI50 [7] was 6.49 µM (inactive). The GI50 [8] was 51.1 µM (inactive) and the GI50 [9] was > 100 µM (inactive).
`O=C1OC(c2ccccc2)=N/C1=C/NC(Cc1ccccc1)C(=O)O` (stereo not given) was tested, and the GI50 [1] was > 100 µM (inactive), the GI50 [3] was > 100 µM (inactive) and the GI50 [4] was > 100 µM (inactive). For the same compound, the GI50 [5] was > 100 µM (inactive), the GI50 [7] was > 100 µM (inactive) and the GI50 [8] was > 100 µM (inactive). The GI50 [9] was > 100 µM (inactive).
With `N#Cc1cc([N+](=O)[O-])ccc1NC(=O)/C(=N\NC(=O)c1ccncc1)C(c1cnc2ccc([N+](=O)[O-])cc2n1)[N+](=O)[O-]` (stereo not given) the GI50 [2] was 1.5 µM (inactive), the GI50 [3] was 0.566 µM (active) and the GI50 [4] was 1.57 µM (inactive). For the same compound, the GI50 [5] was 1.82 µM (inactive), the GI50 [6] was 1.6 µM (inactive) and the GI50 [7] was 2.32 µM (inactive). The GI50 [8] was 4.26 µM (inactive) and the GI50 [9] was 6.34 µM (inactive).
For `COc1ccc(/C=C/c2nnc(S)[nH]2)cc1OC`, the GI50 [1] was > 100 µM (inactive), the GI50 [3] was > 100 µM (inactive) and the GI50 [4] was > 100 µM (inactive). For the same compound, the GI50 [5] was > 100 µM (inactive), the GI50 [6] was > 100 µM (inactive) and the GI50 [8] was > 100 µM (inactive). The GI50 [9] was > 100 µM (inactive).
With `O=C1C(Cl)C(c2cc(Br)cc(Br)c2O)N1n1cnc2ccccc2c1=O` (stereo not given) the GI50 [1] was 8.87 µM (inactive), the GI50 [2] was 24.5 µM (inactive) and the GI50 [3] was 16.7 µM (inactive). The GI50 [4] was 21 µM (inactive), the GI50 [5] was 29.4 µM (inactive) and the GI50 [8] was 32.5 µM (inactive). The GI50 [9] was 20.7 µM (inactive).
For `COc1ccc(/C(C)=N/NC(N)=S)c(OC)c1`, the GI50 [1] was > 100 µM (inactive), the GI50 [2] was > 100 µM (inactive) and the GI50 [3] was > 100 µM (inactive). For the same compound, the GI50 [4] was > 100 µM (inactive), the GI50 [6] was 97.1 µM (inactive) and the GI50 [7] was > 100 µM (inactive). For the same compound, the GI50 [8] was > 100 µM (inactive) and the GI50 [9] was > 100 µM (inactive).
`O=c1cc(-c2ccccc2F)[nH]c2cc3c(cc12)OCO3` was tested, and the GI50 [1] was 0.0441 µM (active), the GI50 [2] was 0.544 µM (active) and the GI50 [3] was 0.236 µM (active). For the same compound, the GI50 [4] was 0.0403 µM (active), the GI50 [5] was 0.189 µM (active) and the GI50 [6] was 0.508 µM (active). The GI50 [9] was 0.23 µM (active).
`N=C1NC(=O)N2CC12` (stereo not given) [IMEXON] was tested, and the GI50 [1] was > 100 µM (inactive), the GI50 [2] was > 100 µM (inactive) and the GI50 [4] was > 100 µM (inactive). The GI50 [5] was > 100 µM (inactive), the GI50 [6] was > 100 µM (inactive) and the GI50 [8] was > 100 µM (inactive).
For `COc1cc(CO)cc2c1[nH]c1ccccc12` [KOENOLINE], the GI50 [1] was > 25 µM (inactive), the GI50 [2] was > 25 µM (inactive) and the GI50 [3] was > 25 µM (inactive). For the same compound, the GI50 [4] was > 25 µM (inactive), the GI50 [5] was > 25 µM (inactive) and the GI50 [6] was > 25 µM (inactive). The GI50 [8] was > 25 µM (inactive) and the GI50 [9] was > 25 µM (inactive).
